Measured values: patent US20260217692A1 (Ascentage Pharma (Suzhou) Co., Ltd., priority 2023, published 2026)
“And” between values parts separate entries of the source, which are not always exact repeats. Equal entries are not always repeated. Structures can show the parent of a compound that is named as a salt. Each block holds one compound with its values, some of them ahead of it.

Experiments:
[1] = Stability of crystal forms under stability test conditions (appearance, XRPD, HPLC); type: physicochemical; settings: for Total impurities: HPLC
Procedure: The samples were placed under the stability conditions shown in the following table, sampling was performed at the corresponding time points, and the samples were subjected to appearance and XRPD tests. […] The stability results obtained are recorded in the following table. […] The samples were placed under the stability test conditions shown in the following table, sampling was performed at different time points, and the samples were subjected to the XRPD test. […] The samples were placed in an open state under the stability test conditions of 40° C./75% RH and 90% RH; and the samples were placed in a closed state at 60° C. in a light box (the test samples in the dark were placed in the same manner as the illumination test samples, and the treatment was performed in the dark). Sampling was performed at different time points, and the samples were subjected to the XRPD test. […] The samples were placed under the stability conditions shown in the following table, sampling was performed at the corresponding time points, and the samples were subjected to appearance and XRPD tests. […] The stability results obtained are recorded in the following table.

[2] = Dynamic vapor sorption (DVS) hygroscopicity test; type: physicochemical; settings: for hygroscopic weight gain (DVS curve): 25° C. and 80% RH
Text: In the present disclosure, the DVS test parameters are set as follows: [table]

[3] = in vivo; cited from earlier work
[4] = tested on: multiple xenograft tumor models; settings: cited from earlier work
[5] = tested on: EGFRT790M-mutant NSCLC xenograft tumor models; settings: cited from earlier work
[6] = tested on: preclinical tumor model; settings: preclinical tumor model studies; cited from earlier work
[7] = Polymorph screening test, suspension method (crystal form by XRPD after stirring in solvent); type: physicochemical
Procedure: (or 50° C.) for 3 days in the dark and centrifuged to remove the supernatant; the resulting precipitate was dried under vacuum (25° C., −0.1 MPa); and the resulting solid was collected and subjected to the XRPD test. The results are as follows:
(or 50° C./80° C.) for 3 days in the dark and centrifuged to remove the supernatant; and the resulting precipitate was dried under vacuum (25° C., −0.1 MPa).
(or 50° C.) for 3 days in the dark and centrifuged to remove the supernatant; and the resulting precipitate was dried under vacuum (25° C., −0.1 MPa).

[8] = Solubility in biological media at 37° C. (HPLC, pH)
[9] = XRPD of residual solids in solubility test in biological media; type: physicochemical; settings: Water; 37° C.
[10] = Illumination (1 ICH), 5 d and 10 d
[11] = 0 d, listed as Crystal form D of the compound represented by formula I

Compound: Cc1cc(Nc2ncc(Cl)c(Nc3ccccc3S(=O)(=O)C(C)C)n2)c(OC(C)C)cc1C1=CCN(C2CCOCC2)CC1.Cl
Appearance ([1]; 0 d): Pale yellow powder
Total impurities ([1]; 0 d): 0.10%
Total impurities ([1]; 40° C./75% RH, 5 d): 0.18%
Total impurities ([1]; 40° C./75% RH, 10 d): 0.53%
Appearance ([1]; 40° C./75% RH, 30 d): Color deepening
Total impurities ([1]; 40° C./75% RH, 30 d): 1.09%
Total impurities ([1]; 60° C., 5 d): 0.15%
Total impurities ([1]; 60° C., 10 d): 0.23%
Total impurities ([1]; 60° C., 30 d): 0.21%
Total impurities ([1]; 90% RH, 5 d): 0.17%
Total impurities ([1]; 90% RH, 10 d): 0.28%
Appearance ([1]; 90% RH, 30 d): Color deepening
Total impurities ([1]; 90% RH, 30 d): 0.41%
Total impurities ([1]; Illumination (1 ICH), 5 d): 0.39%
Appearance [1, 10]: Color deepening
Total impurities ([1]; Illumination (1 ICH), 10 d): 0.51%
Total impurities ([1]; In the dark, 5 d): 0.07%
Total impurities ([1]; In the dark, 10 d): 0.16%
hygroscopic weight gain (DVS curve) [2]: 0.15%

Compound: Cc1cc(Nc2ncc(Cl)c(Nc3ccccc3S(=O)(=O)C(C)C)n2)c(OC(C)C)cc1C1=CCN(C2CCOCC2)CC1 [APG-2449]
oral bioavailability [3]: high oral bioavailability
anti-tumor activity [4]: exhibits anti-tumor activity
effect in combination with EGFR inhibitors (particularly AZD9291/osimertinib) [5]: synergistic effect
resistance developed by the first-generation ALK inhibitor [6]: can overcome resistance

Compound: Maleate
Solubility ([8]; FaSSIF-V2, 2 h): 20 µg/mL
Solubility ([8]; FaSSIF-V2, 24 h): <LOQ
Solubility ([8]; FeSSIF-V2, 2 h): 220 µg/mL
Solubility ([8]; FeSSIF-V2, 24 h): 220 µg/mL
Solubility ([8]; SGF, 2 h): 1390 µg/mL
Solubility ([8]; SGF, 24 h): 1920 µg/mL
Solubility ([8]; Water, 2 h): 20 µg/mL
Solubility ([8]; Water, 24 h): 20 µg/mL
XRPD results of residual solids [9]: Crystal form A

Second part, the compound after the results:

XRPD ([1]; 0 d): No significant change
Total impurities [1, 11]: 0.14%
Appearance [1, 11]: No significant change
Total impurities ([1]; 25° C./60% RH, 1 M): 0.17%
Total impurities ([1]; 25° C./60% RH, 10 d): 0.14%
Appearance ([1]; 25° C./60% RH, 10 d and 1 M): No significant change
XRPD ([1]; 25° C./60% RH, 10 d and 1 M): No significant change
Total impurities ([1]; 40° C./75% RH, 1 M, listed as Crystal form D of the compound represented by formula I): 0.17%
Total impurities ([1]; 40° C./75% RH, 10 d, listed as Crystal form D of the compound represented by formula I): 0.17%
XRPD ([1]; 40° C./75% RH, 10 d and 1 M): No significant change
Appearance ([1]; 40° C./75% RH, 10 d and 1 M, listed as Crystal form D of the compound represented by formula I): No significant change
Total impurities ([1]; 60° C., 1 M, listed as Crystal form D of the compound represented by formula I): 0.20%
Total impurities ([1]; 60° C., 10 d, listed as Crystal form D of the compound represented by formula I): 0.17%
XRPD ([1]; 60° C., 10 d and 1 M): No significant change
Appearance ([1]; 60° C., 10 d and 1 M, listed as Crystal form D of the compound represented by formula I): No significant change
Total impurities ([1]; 90% RH, 1 M, listed as Crystal form D of the compound represented by formula I): 0.17%
Total impurities ([1]; 90% RH, 10 d, listed as Crystal form D of the compound represented by formula I): 0.17%
XRPD ([1]; 90% RH, 10 d and 1 M): No significant change
Appearance ([1]; 90% RH, 10 d and 1 M, listed as Crystal form D of the compound represented by formula I): No significant change
Total impurities ([1]; Illumination, 5 d, listed as Crystal form D of the compound represented by formula I): 0.17%
Appearance ([1]; Illumination, 5 d and 10 d): Color deepening
XRPD ([1]; Illumination, 5 d and 10 d): No significant change
Total impurities ([1]; Illumination, 10 d, listed as Crystal form D of the compound represented by formula I): 2.43%
Total impurities ([1]; In the dark, 5 d, listed as Crystal form D of the compound represented by formula I): 0.17%
XRPD ([1]; In the dark, 5 d and 10 d): No significant change
Appearance ([1]; In the dark, 5 d and 10 d, listed as Crystal form D of the compound represented by formula I): No significant change
Total impurities ([1]; In the dark, 10 d, listed as Crystal form D of the compound represented by formula I): 0.14%
hygroscopic weight gain (DVS curve) [2]: 0.14±0.005% and 0.14%
Compound: Cc1cc(Nc2ncc(Cl)c(Nc3ccccc3S(=O)(=O)C(C)C)n2)c(OC(C)C)cc1C1=CCN(C2CCOCC2)CC1 [crystal form D]

Appearance ([1]; 0 d): Pale yellow powder
Crystal form (XRPD) ([1]; 0 d): Maleate crystal form A
Total impurities ([1]; 0 d): 0.12%
Crystal form (XRPD) ([1]; 40° C./75% RH, 5 d, 10 d and 30 d): Maleate crystal form A
Total impurities ([1]; 40° C./75% RH, 5 d): 0.16%
Total impurities ([1]; 40° C./75% RH, 10 d): 0.14%
Total impurities ([1]; 40° C./75% RH, 30 d): 0.29%
Crystal form (XRPD) ([1]; 60° C., 5 d, 10 d and 30 d): Maleate crystal form A
Total impurities ([1]; 60° C., 5 d): 0.16%
Total impurities ([1]; 60° C., 10 d): 0.21%
Total impurities ([1]; 60° C., 30 d): 0.16%
Crystal form (XRPD) ([1]; 90% RH, 5 d, 10 d and 30 d): Maleate crystal form A
Total impurities ([1]; 90% RH, 5 d): 0.14%
Total impurities ([1]; 90% RH, 10 d): 0.25%
Total impurities ([1]; 90% RH, 30 d): 0.26%
Total impurities ([1]; Illumination (1 ICH), 5 d): 0.26%
Appearance [1, 10]: Color deepening
Crystal form (XRPD) [1, 10]: Maleate crystal form A
Total impurities ([1]; Illumination (1 ICH), 10 d): 0.65%
Total impurities ([1]; In the dark, 5 d): 0.12%
Crystal form (XRPD) ([1]; In the dark, 5 d and 10 d): Maleate crystal form A
Total impurities ([1]; In the dark, 10 d): 0.18%
hygroscopic weight gain (DVS curve) [2]: 0.11±0.005% and 0.11%
hygroscopicity (DVS result in words) ([2]; 80% RH): no hygroscopicity
crystal form before and after the hygroscopic test ([2]; DVS): did not change
stability of crystal form in solvent, suspension method ([7]; ethanol, isopropanol, acetone, ethyl acetate, isopropyl acetate, methyl tert-butyl ether, dichloromethane, tetrahydrofuran, toluene, n-heptane, dioxane, methyl acetate, 2-methyltetrahydrofuran, cyclohexane, n-hexane, methyl ethyl ketone, or methyl isobutyl ketone): relatively good stability
crystal form when stirred in solvent ([7]; same solvents as in b585 at 25-50° C.): remained stable
Compound: Cc1cc(Nc2ncc(Cl)c(Nc3ccccc3S(=O)(=O)C(C)C)n2)c(OC(C)C)cc1C1=CCN(C2CCOCC2)CC1 [one equivalent of maleate crystal form A]

Total impurities ([1]; 0 d): 0.73%
Total impurities ([1]; 40° C./75% RH, 1 M): 0.74%
Total impurities ([1]; 40° C./75% RH, 10 d): 0.74%
Total impurities ([1]; 60° C., 1 M): 0.71%
Total impurities ([1]; 60° C., 10 d): 0.69%
Total impurities ([1]; 90% RH, 1 M): 0.96%
Total impurities ([1]; 90% RH, 10 d): 0.73%
Total impurities ([1]; Illumination, 5 d): 0.86%
Appearance ([1]; Illumination, 5 d and 10 d): Color deepening
Total impurities ([1]; Illumination, 10 d): 0.98%
hygroscopic weight gain (DVS curve) [2]: 0.19±0.005% and 0.19%
stability of crystal form in solvents, succinate polymorph screening test ([7]; in solvents): relatively good stability
crystal form when stirred in solvent ([7]; methanol, ethanol, acetonitrile, acetone, ethyl acetate, dichloromethane, water, n-heptane, dioxane, or mixed solvent of methanol, acetonitrile, or acetone with water, 40° C.): remained stable
Compound: Cc1cc(Nc2ncc(Cl)c(Nc3ccccc3S(=O)(=O)C(C)C)n2)c(OC(C)C)cc1C1=CCN(C2CCOCC2)CC1 [one equivalent of succinate crystal form D]
